Here are results for 4 molecules from patent US10034880B2, “Ophthalmic suspension formulation” (Sumitomo Dainippon Pharma Co., Ltd., priority 2014, dated 2018).

Data set [1] deals with VEGF production in retina. The conditions noted are these: oral repetitive administration, SDT rats; cited from earlier work.
The nature of data set [2]: Evaluation of transferability to posterior eye segment in rats (I-1) and (I-2). The format is in vivo. The following applies: SDT, rat, oral repetitive administration 1.0 mg/kg once a day for 21 days, 60 minutes after final administration. The procedure: To both eyes of rat model of diabetes, ophthalmic suspension formulation A1 wherein Compound A was suspended in a generally-tolerated dose as a suspension formulation (200 mg/mL) or ophthalmic solution formulation Z wherein Compound A was dissolved (400 μg/mL) was administered in eyedrops in the amount of 5 μL for one eye (which is a maximum tolerated dose for eyedrops in rats) totally 5 times at intervals of 5 minutes. 60 minutes after the administration, each concentration of Compound A in cornea, retina and plasma was measured.
Eyedrop has a limitation about tolerated volume of one shot, which is different from other dosage forms. Thus, the delivery amount of the drug to the target tissue which is obtained from eyedrop of a maximum tolerated dose is important. The tolerated volume varies depending on animal species, and the maximum volume in rats is 5 μL for one eye. […]
In addition, Diabetic Retinopathy, INTECH, Chapter 15 “Prophylactic Medical Treatment of Diabetic Retinopathy”, Akihiro Kakehashi et al. disclose an experiment of oral repetitive administration of Compound A to SDT rats, wherein the dose of Compound A making the retinal capillary weakened and the VEGF production in retina inhibited is 1.0 mg/kg. […] 60 minutes after the final administration, each concentration of Compound A in cornea, retina and plasma was measured.

Data set [3] relates to normal human retinal capillary endothelial cell (HREC). Kind of data set: Cell migration assay: inhibition of facilitatory action of cell migration by VEGF stimulation. The format is cell-based. As to the method: The anti-VEGF action of Compound A was evaluated by an experimental method (cell migration assay) described in J Diabetes Complications. 2012; 26(5):369-77. In the experiment, a normal human retinal capillary endothelial cell (HREC) which was obtained from Cell System Co., LTD. was used, and a cell culture used herein was CS-C medium (Cell System Co., LTD.). […] As for Lucentis, its formulation stock solution was diluted with the cell culture, wherein the dilution ratio was 50 μL of the formulation stock solution per 4 mL of the cell culture, and the diluted solution was used in the experiment. The HREC was seeded in 6-well plate, and it was incubated until the confluency became 80-90%. 20-24 hours before assaying the cell migration by the VEGF stimulation, the cell culture was changed to a cell culture containing 0.1% fetal bovine serum. Then, the culture cell monolayer was wounded with a 200 μL pipette tip at one point per well, and the width of the wounds were measured with a microscope. […] About 18 hours after changing the cell culture, each width of the wounds was measured with a microscope, and the anti-VEGF action was evaluated by comparing the width with that of the just-wounded one.

A short description of data set [4]: Evaluation of transferability to posterior eye segment in rats (V). The conditions noted are these: ophthalmic suspension formulations, eyedrops 5 μL for one eye once; 60 minutes after administration. The class given is in vivo, SD rats. As to the method:
To both eyes of SD rats, ophthalmic formulation I, ophthalmic formulation F, ophthalmic formulation G, ophthalmic formulation X1, ophthalmic formulation X2, ophthalmic formulation Y1, or ophthalmic formulation Y2 was administered in eyedrops in the amount of 5 μL for one eye once. 60 minutes after the administration, each concentration of Compound A in retina was measured.

For a further data set, the target named is aldose reductase (Homo sapiens, UniProt P15121). The data set is described as follows: AR inhibitory action. The class given is biochemical.

Entries after “also recorded” stand apart in the source; their conditions may differ. Read-outs that look alike come from different tables or passages of the source.

As to `O=C1C[C@@]2(C(=O)N1)C(=O)N(Cc1ccc(Br)cc1F)C(=O)c1cccn12` [Compound A, (R)-(−)-2-(4-bromo-2-fluorobenzyl)-1,2,3,4-tetrahydropyrrolo[1,2-a]pyrazine-4-spiro-3′-pyrrolidine-1,2′,3,5′-tetrone], the “oral dose making the retinal capillary weakened and the VEGF production in retina inhibited” value in data set [1] was 1.0 mg/kg. Further, the Kp at 60 min is about 1 in data set [2] (cornea and plasma (cornea/plasma ratio), read-out: concentration ratio cornea to plasma (plasma:cornea:retina, plasma = 1)); about 1 in data set [2] (retina and plasma (retina/plasma ratio), po, 1 mg/kg, read-out: retina/plasma ratio). Besides, the “action inhibiting the HREC migration, comparison” value in data set [3] (1 nM Compound A, VEGF stimulation, about 18 hours) is given as “in the same level as that of 100 nM ((28 ng/mL)/L) Compound C; also recorded: more potent than that of 1000 nM ((320 ng/mL)/L) Compound B; also recorded: in the same level as Lucentis”. Besides, in data set [4], the delivery to retina result is recorded as “delivered to retina much more than the ophthalmic suspension formulation comprising Compound B or C”. The same molecule returned a Ki at aldose reductase of 0.23 nM. Besides, the “AR inhibitory action, action ratio relative to Compound A” value on aldose reductase (figure in brackets) amounted to 1.0 ×.
As for `CC(/C=C1\SC(=S)N(CC(=O)O)C1=O)=C\c1ccccc1` [Compound B, [5-[(1Z,2E)-2-methyl-3-phenylallylidene]-4-oxo-2-thioxothiazolidin-3-yl]acetic acid], the delivery to retina entry in data set [4] is recorded as “hardly delivered to retina”.
On the same count and under the same terms, under `NC(=O)[C@@H]1C[C@]2(NC(=O)NC2=O)c2cc(F)ccc2O1` [Compound C, (2S,4S)-6-fluoro-2′,5′-dioxospiro[chroman-4,4′-imidazolidine]-2-carboxamide] stands “hardly delivered to retina”.

B1: Lucentis: anti-VEGF antibody formulation (general name: ranibizumab) (antibody, chains of the INN, looked up, V domains shown)
VH: EVQLVESGGGLVQPGGSLRLSCAASGYDFTHYGMNWVRQAPGKGLEWVGWINTYTGEPTYAADFKRRFTFSLDTSKSTAYLQMNSLRAEDTAVYYCAKYPYYYGTSHWYFDVWGQGTLVTVSS
VL: DIQLTQSPSSLSASVGDRVTITCSASQDISNYLNWYQQKPGKAPKVLIYFTSSLHSGVPSRFSGSGSGTDFTLTISSLQPEDFATYYCQQYSTVPWTFGQGTKVEIK
For B1, in data set [3] (about 18 hours after changing the cell culture), the “inhibition of HREC migration facilitated by VEGF stimulation” value is on record as “inhibited the migration”.
